Non-standard residues stand in square brackets, D forms with d. Residues, ends and D or L forms follow the SMILES beside them.
Legend:
[1] = test system: LPS-treated BV-2 cells (microglial cell line); assay: LPS-mediated cytokine production in BV-2 cells (qRT-PCR); type: cell-based; details: 20 ng/ml peptide + 2 ng/ml LPS co-treatment, 6 hours, vs LPS-treated cells (FIG. 3)
Description: Microglial cell line BV-2 cells were co-treated with 20 ng/ml of peptide (DD-5052) according to the invention and 2 ng/ml of LPS and cultured for 6 hours. Subsequently, the mRNA expression levels of proinflammatory cytokines IL-1(3 and TNF-α were measured using quantitative real-time polymerase chain reaction (PCR).
Specifically, total RNA was extracted from BV-2 cells using an RNA purification kit (Gene All, Seoul, Korea) according to the manufacturer's protocol. cDNA was synthesized using the Revert Aid First Strand cDNA Synthesis Kit (Thermo Scientific, Waltham, MA, USA) and qRT-PCR analysis was performed using the SYBR Green PCR Master Mix (Thermo Scientific, Waltham, MA, USA). The gene-specific primer sequences for IL-1(3 and TNF-α are shown in the following Table 4, and the mRNA levels of IL-1(3 and TNF-α were calculated relative to the control sample amount.

wild-type mice = assay: LPS-induced neuroinflammation (microgliosis) in brains of wild-type mice, Iba-1 immunohistochemical staining; type: in vivo, mouse
Description: Sections were incubated in 1% H2O2 for 15 minutes, and then put into a solution in which a mouse […] was diluted 1:400, and incubated at 4° C. overnight. After incubation with a biotinylated secondary antibody (diluted 1:200, Vector Laboratories, Inc., Burlingame, CA, USA) at room temperature for 1 hour, the sections were incubated with an avidin-biotin-peroxidase complex (diluted 1:100, vector) for 1 hour. Thereafter, 0.02% 3,3′-diaminobenzidine and 0.01% H2O2 were reacted for about 3 minutes. After each incubation stage, the sections were washed three times with PBS. Finally, the sections were mounted on gelatin-coated slides, and dehydrated while increasing an alcohol concentration and cleared in xylene.
Experiments were designed as illustrated in FIG. 4A to confirm microglia in the brains of wild-type mice, and immunohistochemical staining was performed using a goat-anti Iba-1 antibody (Ab5076,1:500) against Iba-1 which is a marker for microglia. Three-month-old wild-type mice were intraperitoneally injected (i.p.) with LPS (30 mg/kg/day)+vehicle (Hartmann dex) or DD-S052 (30 mg/kg/day)+LPS (30 mg/kg/day), and sacrificed 6 hours after the last injection of LPS. In this case, LPS and DD-S052 were loaded in separate syringes and injected separately into the right and left abdomen, respectively, and LPS was administered, and then DD-S052 was administered approximately 1 minute later. The half-life of LPS in mouse blood was approximately 2 to 4 minutes. 6 hours after administration of LPS and DD-S052, mouse brains were removed by cardiac perfusion fixation (4% PFA). Thereafter, the removed mouse brain was secondarily fixed in 4% PFA for 20 hours, and then immersed in a 30% sucrose solution. Subsequently, the mouse brains were frozen and sliced into a thickness of 30 μm.
Thereafter, immunohistochemical staining for Iba-1 was performed by the method described in Example 1-2 in order to confirm microglia in the mouse hippocampus, and the results are shown in FIG. 4B.
Microglia were confirmed in the substantia nigra pars compacta (SNc) by performing immunohistochemical staining for Iba-1. Wild-type mice were treated with LPS and DD-5052 in the same manner as in Example 5-1.

5XFAD mice [2] = assay: LPS-induced neuroinflammation in brains of 5XFAD Alzheimer's dementia mice, Iba-1 immunohistochemical staining; type: in vivo, mouse; details: 3-month-old 5XFAD mice, single dose 10 mg/kg + LPS 3 mg/kg, 48 hours, vs LPS+vehicle (FIG. 5B)
Description: Since LPS causes different degrees of inflammatory response depending on the strain of animals to be administered, LPS origin and the like, the animals were co-administered a single dose of 3 mg/kg of LPS and 10 mg/kg of DD-5052, and then sacrificed 48 hours later, 5XFAD mice were treated with 3 mg/kg of LPS by referencing a document which confirms the mortality rate by treating 5XFAD mice with 3 mg/kg of LPS (Barton, S. M.; Janve, V. A.; McClure, R.; Anderson, A.; Matsubara, J. A.; Gore, J. C.; Pham, W., Lipopolysaccharide Induced Opening of the Blood Brain Barrier on Aging 5XFAD Mouse Model. J Alzheimers Dis 2019, 67, (2), 503-513.) and a document which confirms that microgliosis reaches its maximum value from day 2 after the administration of LPS (Kondo, S.; Kohsaka, S.; Okabe, S., Long-term changes of spine dynamics and microglia after transient peripheral immune response triggered by LPS in vivo. […] 48 hours after administration of LPS and DD-5052, mouse brains were removed by cardiac perfusion fixation (4% PFA). Thereafter, the removed mouse brain was secondarily fixed in 4% PFA for 20 hours, and then immersed in a 30% sucrose solution. Subsequently, the mouse brains were frozen and sliced into a thickness of 30

5XFAD mice [3] = assay: Cognitive function experiment (spontaneous alternation, total arm entry) in 5XFAD mice; type: in vivo, mouse; details: 5.5-month-old 5XFAD mice, 2 mg/kg i.p. every other day for 4 weeks
Description: (§1) Then, cognitive function experiments were performed on each mouse, and then the mouse brain was fixed by cardiac perfusion fixation. Thereafter, the removed mouse brain was secondarily fixed in a 4% PFA solution for 20 hours, and then immersed in a 30% sucrose solution. Subsequently, the mouse brains were frozen and sliced into a thickness of 30 μm.
The cognitive function experiment is a novel experiment based on the instinctive behavior of rodents with the will to explore new environments, and is an experiment to evaluate the spatial perception ability of mice to choose a path different from the one which mice chose immediately before in a maze, and scores are given by dividing spontaneous alternation (the ratio of choosing a different path from the path chosen immediately before) by the total number of passages passed (total arm entry). The total arm entry during the experiment becomes an index to evaluate whether all groups have similar motility and whether the experiment is performed normally, apart from spatial perception ability.

5XFAD mice [4] = assay: Alzheimer's dementia-related pathology in 5XFAD mice, immunofluorescence staining (4G8, Iba-1, NeuN); type: in vivo, mouse
Description: as §1
The effects of DD-S052 on beta-amyloid accumulation, microgliosis, and neuronal loss were confirmed using an immunofluorescence staining method.
Specifically, in the case of immunofluorescence labeling, 4 to 5 coronal sections were obtained at subventricular zone (1.18 and 0.02 mm from bregma) and hippocampal formation (−1.58 and −3.80 mm from bregma) levels based on Paxinos and Franklin's “The Mouse Brain in Stereotaxic Coordinates.” Brain tissue was washed with PBS using the free-floating method in a Titramax 101 orbital shaker (Heidolph, Schwabach, Germany) and sections were incubated with PBS including 0.3% Triton X-100, 0.5 mg/mL bovine serum albumin (BSA) and primary antibodies as follows at 4° C. overnight: mouse anti-4G8 antibody (1:2,000; Cat. #800701, BioLegend, USA), mouse anti-NeuN antibody (1:100; Cat. #MAB377, Merck KGaA, Darmstadt, Germany), and goat anti-Iba-1 antibody (1:500; Cat. #ab5076, Abcam, Cambridge, UK).
Before being incubated with the anti-4G8 antibody, brain sections were incubated with 70% formic acid for antigen retrieval for 20 minutes, washed three times with PBS for 5 minutes each, and then incubated with a secondary antibody at room temperature for 50 minutes, and fluorescence signals were observed. As the secondary antibodies, the following antibodies were used: donkey Alexa 488-conjugated anti-mouse IgG (1:200; Cat. #A21202, Thermo Fisher Scientific Inc.), donkey Alexa 488-conjugated anti-goat IgG (1:200; Cat. #A11055, Thermo Fisher Scientific Inc.), and donkey Alexa 594-conjugated anti-rat IgG (1:200; Cat. #A21209, Thermo Fisher Scientific Inc.). All antibodies were diluted with PBS including 0.3% Triton X-100.

tau K18 = target: T1, tau K18 (Homo sapiens, UniProt P10636); assay: Thioflavin T (ThT) assay of tau aggregation; type: biochemical; details: 0.5 mg/mL tau K18, 0.1 mg/mL heparin, DTT, PBS pH 7.4, 21 hours incubation; 10-1000 μg/mL (FIG. 7)
T1 construct: 0.5 mg/mL tau K18, 0.1 mg/mL heparin
T1 sequence (P10636 561-685 limits assumed): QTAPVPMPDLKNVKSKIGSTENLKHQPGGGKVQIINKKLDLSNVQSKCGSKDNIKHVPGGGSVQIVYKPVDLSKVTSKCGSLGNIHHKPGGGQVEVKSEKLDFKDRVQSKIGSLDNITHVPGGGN
Description: Thioflavin T (ThT) assay was performed to investigate the effect of DD-S052 and PEGylated DD-S052 on tau aggregation. ThT is known to bind to (3-sheet-rich protein aggregates to produce fluorescence. Synthetic tau K18 was dissolved in PBS (pH 7.4) in order to induce tau aggregation. The polymerization of tau proteins was induced by preparing a solution including PBS (pH 7.4), 0.5 mg/mL tau K18, 0.1 mg/mL heparin and 100 ρ, M DTT. DD-5052 at various concentrations (10, 20, 40, 100, and 1000 μg/mL), a 100 ρ, M methylene blue (MB) solution (positive control), and PEGylated DD-5052 were incubated together with an aggregation mixture for 21 hours. After incubation, a ThT solution (15 ρ, M in a 50 mM glycine buffer, pH 8.9) was added to a 96-well plate containing the sample and the aggregation mixture, and the resulting mixture was incubated for 3 hours. The fluorescence intensity of ThT was measured using a SpectraMax iD3 Multi-Mode Microplate Reader (Molecular Devices, San Jose, CA, USA) at excitation and emission wavelengths of 440 and 484 nm and quantified.

[5] = Artificial membrane permeation test simulating the blood-brain barrier (PAMPA-096), LC-MS / ESI-FT-ICR-MS; type: in vitro ADME; details: for MS peak intensity, Before / LogPe: 100 μg/ml peptide; for LogPe: 18 hr, room temperature, PBS; for MS peak intensity, Acceptor / MS peak intensity, Donor: after 18 hr
Description: In order to confirm whether the peptide DD-S052 of the present invention passes through the blood-brain barrier (BBB), an artificial membrane permeation test simulating the blood-brain barrier was performed using a parallel artificial membrane permeability assay kit (PAMPA-096; BioAssay Systems).
Analysis conditions are shown in the following Table 5, and analysis was performed by liquid chromatography-mass spectrometry (LC-MS).
Quantitative analysis was performed using electrospray ionization coupled to Fourier transform ion cyclotron resonance mass spectrometry (ESI-FT-ICR-MS), and the analysis conditions are shown in the following Table 6.
The intensity value of a peak corresponding to the test material was used according to the Log Pe function described in an existing document (Evaluation of the reproducibility of Parallel Artificial Membrane Permeation Assays PAMPA, Sigma Aldrich), and the value calculated by the Log Pe function was used to predict the degree of permeation by referencing an existing document (Brian. J et al. Predicting a Drug's Membrane Permeability: A Computational Model Validated With in Vitro Permeability Assay Data. J Phys Chem B. 2017 May 25;121(20):5228-5237).

CC(C)C[C@@H](NC(=O)[C@H](N)CCCCN)C(=O)N[C@H](CCCNC(=N)N)C(=O)N[C@@H](C(=O)N[C@H](CCCCN)C(=O)N[C@H](CC(C)C)C(=O)N[C@H](CCCNC(=N)N)C(=O)N[C@H](CCCNC(=N)N)C(=O)N[C@H](Cc1ccc(O)cc1)C(=O)N[C@H](CC(C)C)C(=O)N[C@H](CCCNC(=N)N)C(N)=O)C(C)C [DD-S052, KLRVKLRRYLR-NH2 (AcOH)] (H-[dK][dL][dR][dV][dK][dL][dR][dR][dY][dL][dR]-NH2; N-terminus assumed)
mRNA expression of IL-1(3 induced by LPS) [1]: suppressed | mRNA expression of TNF-α induced by LPS [1]: suppressed | microglial morphology in hippocampus (wild-type mice; 3-month-old wild-type mice, 30 mg/kg/day i.p. + LPS 30 mg/kg/day i.p., 6 hours after last LPS (FIG. 4B)): tendency to change from an amoeboid shape to a ramified shape | number of Iba-1-positive cells in hippocampus (wild-type mice; 3-month-old wild-type mice, 30 mg/kg/day i.p. + LPS 30 mg/kg/day, vs LPS+vehicle (Hartmann dex), p<0.001 (FIG. 4C)): remarkably decreased | microglial morphology in substantia nigra pars compacta (SNc) (wild-type mice; wild-type mice, 30 mg/kg/day i.p. + LPS 30 mg/kg/day (FIG. 4D)): tendency to change from an amoeboid shape to a ramified shape | Iba-1(+) microglia in the SNc (wild-type mice; wild-type mice, 30 mg/kg/day i.p. + LPS 30 mg/kg/day, vs LPS+vehicle (FIG. 4D)): tended to decrease | Iba-1(+) microglia in cerebral cortex and hippocampus (5XFAD mice [2]): decreased | total arm entry (5XFAD mice [3]; 8-minute session, vs vehicle-treated 5XFAD, no significance between groups): increased | spontaneous alternation (5XFAD mice [3]; vs vehicle-treated 5XFAD (FIG. 6B)): increased | number of NeuN(+) cells (neuronal loss) (5XFAD mice [4]; 2 mg/kg i.p. every other day for 4 weeks): increased | 4G8(+) region (beta-amyloid accumulation) (5XFAD mice [4]; 2 mg/kg i.p. every other day for 4 weeks (FIG. 6C)): reduced | number of Iba-1(+) cells (microgliosis) (5XFAD mice [4]; 2 mg/kg i.p. every other day for 4 weeks (FIG. 6D)): reduced | fluorescence intensity of thioflavin T (ThT) (tau K18 aggregation) (tau K18): reduced | MS peak intensity, Before ([5]; peak at 375 m/z): 1829478400 | LogPe ([5]; peak at 375 m/z): −5.405 | MS peak intensity, Acceptor ([5]; peak at 375 m/z): 717305173 | MS peak intensity, Donor ([5]; peak at 375 m/z): 909677952 | MS peak intensity, Before ([5]; peak at 512 m/z): 1667509760 | LogPe ([5]; peak at 512 m/z): −5.362 | MS peak intensity, Acceptor ([5]; peak at 512 m/z): 717488192 | MS peak intensity, Donor ([5]; peak at 512 m/z): 867968256

EG-KLRVKLRRYLR-NH2 (AcOH) (not fully specified; N-terminal PEG, C-terminal amide, acetate salt; DD-S052P; BINDING (11) amine group (NH2) is added to C-terminus of polypeptide.; SITE (9) trifluoroacetic acid (TFA) at a terminus of the 9th amino acid from the N terminus of a peptide is substituted with an acetate salt.; SITE (1) peptide N-terminus PEGylation)
fluorescence intensity of thioflavin T (ThT) (tau K18 aggregation) (tau K18): reduced

— patent US20240082345A1, “PEPTIDE COMPOSITION FOR PREVENTION OR TREATMENT OF ALZHEIMER'S DISEASE” (priority 2020, published 2024)
